Tests used:
[1] = target: T1, rat prostate androgen receptor (Rattus norvegicus, UniProt P15207); experiment: inhibitory activity on binding of ^3 H-mibolerone on rat prostate androgen receptor; settings: ^3 H-mibolerone 1 nM, triamcinolone acetonide 5 μM, rat ventral prostate cytosol, 20 hours at 0° C.; read-out: Inhibitory activity on mibolerone specific binding [IC50 (M)]
T1 construct: the supernatant was obtained as cytoplasm fraction; from tissue; host or cells: cytosol (105000×g supernatant) of rat ventral prostate, 24 hours after castration
T1 sequence (P15207 1-902): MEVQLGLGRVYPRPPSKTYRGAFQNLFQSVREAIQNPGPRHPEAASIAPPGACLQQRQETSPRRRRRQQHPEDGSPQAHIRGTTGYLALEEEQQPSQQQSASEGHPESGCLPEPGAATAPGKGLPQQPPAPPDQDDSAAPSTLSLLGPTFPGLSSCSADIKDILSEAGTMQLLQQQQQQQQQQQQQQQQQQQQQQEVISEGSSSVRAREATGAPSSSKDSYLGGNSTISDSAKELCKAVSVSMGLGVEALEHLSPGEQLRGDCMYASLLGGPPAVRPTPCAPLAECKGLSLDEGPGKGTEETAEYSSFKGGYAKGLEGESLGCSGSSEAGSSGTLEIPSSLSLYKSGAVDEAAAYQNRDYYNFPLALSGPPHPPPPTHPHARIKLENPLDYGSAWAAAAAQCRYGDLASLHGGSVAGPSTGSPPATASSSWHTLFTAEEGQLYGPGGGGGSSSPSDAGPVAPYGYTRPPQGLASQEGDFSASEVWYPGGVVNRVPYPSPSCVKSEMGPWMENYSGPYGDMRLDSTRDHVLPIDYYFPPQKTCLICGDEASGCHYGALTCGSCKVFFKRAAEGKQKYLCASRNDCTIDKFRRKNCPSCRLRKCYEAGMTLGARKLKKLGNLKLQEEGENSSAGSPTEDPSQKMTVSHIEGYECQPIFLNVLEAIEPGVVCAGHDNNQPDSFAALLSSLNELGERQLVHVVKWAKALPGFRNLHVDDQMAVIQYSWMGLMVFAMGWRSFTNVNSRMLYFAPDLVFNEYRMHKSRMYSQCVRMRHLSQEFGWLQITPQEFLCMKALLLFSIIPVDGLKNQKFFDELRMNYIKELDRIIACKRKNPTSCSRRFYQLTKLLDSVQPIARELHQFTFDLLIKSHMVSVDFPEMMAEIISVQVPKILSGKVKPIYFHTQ
Experimental: B. Measurement of inhibitory activity on binding of ^3 H-mibolerone on rat prostate androgen receptor
The rat was sacrificed 24 hours after castration, and the ventral lobe of prostate was removed, and was gently homogenized, in ice-cooling water bath, at first by using Polytron and then using Potter type homogenizer, in three-fold amount of buffer solution A (1.5 mM EDTA, 2 mM dithiothreitol, 10 mM molybdate sodium, 10 % by volume of glycerol, 10 mM NaF, 25 mM phosphate sodium, pH 7.2). The obtained homogenate was filtrated through double gauze, and centrifuged at 105000×g for 60 minutes at 4° C., and the supernatant was obtained as cytoplasm fraction.
(2) Measurement of specific binding of ^3 H-mibolerone on prostate cytoplasm androgen receptor
To the cytoplasm fraction obtained in (1), ^3 H-mibolerone (87.0 Ci/mmol) was added, so that a final concentration is adjusted to 1 nM, and at the same time, in order to inhibit binding of ^3 H-mibolerone to progestin receptor, triamsinolone acetonide was added to a final concentration of 5 μM, and the final volume was adjusted to 0.4 ml with buffer solution A, and the reaction mixture was incubated for 20 hours at 0° C. After incubation, 0.5 ml of 60% hydroxylapatite slurry (washed and equilibrate with a buffer solution B: 10 mM NaH2 P04, 20 mM tris-hydrochloric acid, pH 7.2) was added, and incubated for 10 minutes at 0° C., the solution was transferred onto a glass fiber filter, and washed five times with 5 ml portions of buffer solution B containing 0.1% (weight/volume) of Triton X-100, to remove free ^3 H-mibolerone. This glass fiber was transferred into vial, and 10 ml of aquasol-2 was added, and the radioactivity was measured, and the total binding amount of ^3 H-mibolerone on prostate cytoplasm androgen receptor was determined.
The nonspecific binding amount was determined similarly by adding an unlabeled 5α-DHT in the reaction solution to a final concentration of 1 μM. The difference between the total binding amount and nonspecific binding amount was determined as the specific binding amount on the androgen receptor.
(3) Inhibitory activity of sample compounds on ^3 H-mibolerone specific binding
The compounds obtained in the experiments were added simultaneously with ^3 H-mibolerone at different concentrations to incubate same as in (2), and the specific binding amount of 3H-mibolerone on androgen receptor was determined. Comparing this value with the value obtained in (2), the IC50 value of inhibitory activity of the compounds on ^3 H-mibolerone specific binding was determined.

[2] = target: T1, rat prostate androgen receptor; experiment: inhibitory activity on binding of ^3 H-5α-DHT on rat prostate androgen receptor; settings: ^3 H-5α-DHT 1 nM, rat ventral prostate cytosol, about 20 hours at 0° C.; read-out: Inhibitory activity on 5α-DHT specific binding [IC50 (M)]
Experimental: The compounds obtained in Examples were evaluated in the following pharmacological studies A and B. The pharmacological study A was conducted in conformity with J.B.C. 256 (15) 7998-8005, 1981.
A. Measurement of inhibitory activity on binding of ^3 H-5α-[…] (^3 H-5α,-DHT) on rat prostate androgen receptor
(1) Preparation of cytosol from rat prostate
The rat was sacrificed 24 hours after castration, and the ventral lobe of prostate was removed, and was gently homogenized, on ice water bath, by using a Potter homogenizer in three-fold amount of 0.25M sucrose-TME buffer solution (50 mM tris-HCl (pH 7.4), 0.5 mM mercaptoethanol, and 0.1 mM EDTA-2 Na). The homogenate was filtrated through double gauze, and ultracentrifuged at 105000×g for 60 minutes, and the supernatant was used as androgen receptor.
(2) Measurement of ^3 H-5α-DHT specific binding on prostate cytoplasmic androgen receptor
To the cytosol obtained in (1), ^3 H-5α-DHT (47.8 Ci/mmol) was added, so that a final concentration is adjusted to 1 nM, and 0.25 M sucrose-TME buffer was added to adjust the final volume to 0.5 ml, and the reaction mixture was incubated for about 20 hours at 0° C. An ammonium sulfate solution dissolved in 0.25 M sucrose-TME buffer was mixed to be 35% saturation, and after standing for 90 minutes at 0° C., the mixture was centrifuged at 10000×g for 10 minutes at 4° C., and the precipitate was obtained.
This precipitate was suspended again in 0.8 ml of the above buffer solution, and furthermore in order to remove the free type ^3 H-5α-DHT, 0.2 ml of dextran-carbon powder suspension (4% activated carbon, 0.1% dextran T-70, and 0.1% gelatin dissolved in the above buffer solution) was added and mixed, and the mixture was let stand for 10 minutes at 0° C. At 4° C., in succession, the mixture was centrifuged at 3000×g for 10 minutes, and 0.5 ml of the supernatant was transferred into a vial, and 10 ml of aquasol-2 was added, and radioactivity was measured, and the total binding amount of ^3 H-5α-DHT on the prostate cytoplasma androgen receptor was determined. The nonspecific binding amount was similarly determined by adding a non-radioactive ligand (5α-DHT) to the reaction solution to a final concentration of 1 μM. The difference between the total binding amount and nonspecific binding amount was determined as the specific binding amount on the androgen receptor.
(3) Inhibitory activity of sample compounds on ^3 H-5α-DHT specific binding
The compounds obtained in Examples were incubated with ^3 H-5α-DHT at several concentrations same as in (2), and the specific binding amount of ^3 H-5α-DHT on the androgen receptor was determined. Comparing the obtained value with the value of (2), the IC50 value of the test compounds on ^3 H-5α-DHT specific binding was determined. The following compounds were used as the positive controls.

| SMILES | IC50 [1] | IC50 [2] |
| --- | --- | --- |
| Oc1ccnc2c(-c3ccc(Sc4ccccc4)cc3)cnn12 [Example 3, 7-Hydroxy-3-(4-phenylthiophenyl)pyrazolo[1,5-a]pyrimidine] | 9e-08 M | 8.5e-07 M |
| Cc1cc(O)n2ncc(-c3ccc(Sc4ccccc4)cc3)c2n1 [Example 5, 7-Hydroxy-5,methyl-3-(4-phenylthiophenyl)pyrazolo[1,5-a]pyrimidine] | 5e-07 M | 5e-07 M |
| Oc1ncnc2c(-c3ccc(Sc4ccccc4)cc3)cnn12 [Example 77, 4-Hydroxy-8-(4-phenylthiophenyl)pyrazolo[1,5-a]-1,3,5-triazine] | 4.6e-07 M | 9.6e-07 M |
| O=S(=O)(Nc1ccccc1)c1ccc(-c2cnn3c(O)ncnc23)cc1 [Example 87, 4-Hydroxy-8-(4-phenylaminosulfonylphenyl)pyrazolo[1,5-a]-1,3,5-triazine] | 4e-08 M | 1.3e-07 M |
| CCc1ccc(NS(=O)(=O)c2ccc(-c3cnn4c(O)ncnc34)cc2)cc1 [Example 89, 8-[4-(4-Ethylphenylaminosulfonyl)phenyl]-4-hydroxypyrazlo[1,5-a]-1,3,5-triazine] | – | < 5e-06 M |
| CCc1cccc(NS(=O)(=O)c2ccc(-c3cnn4c(O)ncnc34)cc2)c1 [Example 90, 8-[4-(3-ethylphenylaminosulfonyl)phenyl]-4-hydroxypyrazolo[1,5-a]-1,3,5-triazine] | – | < 5e-06 M |
| CCc1ccccc1NS(=O)(=O)c1ccc(-c2cnn3c(O)ncnc23)cc1 [Example 91, 8-[4-(2-ethylphenylaminosulfonyl)phenyl]-4-hydroxypoyrazolo[1,5-a]-1,3,5-triazine] | – | < 5e-06 M |
| CC(C)c1ccc(NS(=O)(=O)c2ccc(-c3cnn4c(O)ncnc34)cc2)cc1 [Example 92, 4-Hydroxy-8-[4-(4-isopropylphenylaminosulfonyl)phenyl]pyrazolo[1,5-a]-1,3,5-triazine] | – | < 5e-06 M |
| N#Cc1ccc(NS(=O)(=O)c2ccc(-c3cnn4c(O)ncnc34)cc2)cc1 [Example 94, 8-[4-(4-cyanophenylaminosulfonyl)phenyl]-4-hydroxypyrazolo[1,5-a]-1,3,5-triazine] | – | 6e-07 M |
| O=S(=O)(Nc1ccc(Cl)cc1)c1ccc(-c2cnn3c(O)ncnc23)cc1 [Example 95, 8-[4-(4-chlorophenylaminosulfonyl)phenyl]-4-hydroxypyrazolo[1,5-a]-l,3,5-triazine] | – | 1.2e-06 M |
| O=S(=O)(Nc1cccnc1)c1ccc(-c2cnn3c(O)ncnc23)cc1 [Example 97, 4-Hydroxy-8-[4-(3-pyridylaminosulfonyl)phenyl]pyrazolo[1,5-a]-1,3,5-triazine] | – | 5e-06 M |
| O=S(=O)(NC1CCCCC1)c1ccc(-c2cnn3c(O)ncnc23)cc1 [Example 98, 8-(4-cyclohexylaminosulfonylphenyl)-4-hydroxypyrazolo[1,5-a]-1,3,5-triazine] | – | 3.6e-07 M |
| Cc1cc(-c2cnn3c(O)ncnc23)ccc1Sc1ccc(Br)cc1 [Example 100, 8-[4-(4-bromophenylthio)-3-methylphenyl]-4-hydroxypyrazolo[1,5-a]-1,3,5-triazine] | – | 4e-07 M |
| COc1cc(-c2cnn3c(O)ncnc23)ccc1Sc1ccccc1 [Example 101, 4-Hydroxy-8-(3-methoxy-4-phenylthiophenyl)pyrazolo [1,5-a]-1,3,5-triazine] | 1.5e-07 M | 3e-07 M |
| Oc1ncnc2c(-c3ccc(Sc4ccccc4)c(Cl)c3)cnn12 [Example 102, 8-(3-chloro-4-phenylthiophenyl)-4-hydroxypyrazolo[1,5-a]-1,3,5-triazine] | – | 2.2e-06 M |
| Cc1cc(-c2cnn3c(O)ncnc23)ccc1S(=O)(=O)Nc1ccccc1 [Example 103, 4-Hydroxy-8-(3-methyl-4-phenylaminosulfonylphenyl)pyrazolo[1,5-a]-1,3,5-triazine] | – | 2.5e-07 M |
